{"source": "patent US20250154468A1", "about": "“METHOD FOR INDUCING DEDIFFERENTIATION OF ADIPOCYTES” (City University of Hong Kong, priority 2023, published 2025)", "type_in_all_cases": "cell-based, mouse", "key": {"3T3-L1 adipocytes [1]": {"system": "3T3-L1 adipocytes", "experiment": "Loss of lipid droplets and morphological changes of 3T3-L1 adipocytes", "parameters": "loss of lipid droplets: dose or concentration left out as unconfirmed", "protocol": "3T3-L1 (ATCC CL-173) cells were cultured in DMEM medium (Thermo Fisher, product no. 11965126) containing 10% FBS, 2 mM L-glutamine and […] of penicillin-streptomycin (Thermo Fisher).\n1.25×10^5 3T3-L1 were seeded in 6-well dishes and cultured at 37° C. and 5% CO2. The 10 μg/ml insulin (MedChemExpress, product no. HY-P0035), 1 μM dexamethasone (MedChemExpress, product no. HY-14648), 0.5 mM 3-isobutyl-1-methylxanthine (IBMX) (MedChemExpress, product no. HY-12318) and 2 μM rosiglitazone (Sigma, product no. R2408-10MG) (Differentiation medium) were supplemented in culture medium to constitute the differentiation medium for 2 days. Differentiation to SVF was induced by differentiation medium. The SVF cells were incubated for 5 days with differentiation medium. The medium was then changed to DMEM containing 10% FBS, 1×P/S, and 10 μg/ml insulin for 48 h, followed by changing to the culture medium.\n[…] […] HY-Y0873), and maintained at 37° C. and 5% CO2. The medium was changed every 3 days, being careful to avoid shaking the dish to allow the hypertonic medium to diffuse slowly in the culture dish."}, "SVF adipocytes": {"system": "SVF adipocytes", "experiment": "Loss of lipid droplets and morphological changes of SVF-derived adipocytes", "parameters": "loss of lipid droplets: dose or concentration left out as unconfirmed", "protocol": "C57BL/6J mice were used for the present invention and maintained in a 12:12 h light-dark cycle. All mouse experiments were performed in accordance with the protocol approved by the Institutional Animal Research Ethics Sub-Committee of City University of Hong Kong and Department of Health, The Government of The Hong Kong Special Administrative Region. 6 to 8-week-old female were anesthetized with 4% of isoflurane by inhalation, and then inguinal, retroperitoneal WAT were removed. The tissues were shredded after washing in sterile PBS. Afterwards, the tissue pieces were incubated in type II collagenase (Sigma, product no. C6885) for 1 h at 37° C. before passed through a sterile 100 μm filter. SVF was obtained after 5 min centrifugation at 1000 rpm. Culture medium (DMEM supplemented with 10% FBS and 1% penicillin-streptomycin (all obtained from Thermo Fisher) was added to resuspend the cells, followed by culturing in 100 mm culture dishes. The following day, the culture medium was changed to remove the dead and non-adherent cells.\n1.25×10^5 3T3-L1 were seeded in 6-well dishes and cultured at 37° C. and 5% CO2. […]"}, "adipocytes": {"system": "adipocytes", "experiment": "Oil Red O staining of adipocytes", "settings": "BML-284 treatment", "protocol": "Adipocytes were stained with Oil red O staining kit (Solarbio, product no. G1262) solution to detect the lipid droplets according to manufacturer's instructions. Specifically, cells were fixed with 10% formalin for 20 min at room temperature, followed by washing with 60% isopropanol for 5 min. Subsequently, staining was conducted with ORO solution for 20 min at room temperature to enable binding of the dye to the lipid droplets. Finally, the cells were washed with distilled water to eliminate any residual dye."}, "[2]": {"system": "C/EBPβ, PPAR-γ, and adiponectin", "experiment": "RT-qPCR of adipogenic markers in 3T3-L1 adipocytes", "settings": "BML-284 treated cells", "protocol": "(§1) Total RNA was isolated using the RNA Extraction Kit (Takara, product no. 9767) in accordance with the manufacturer's recommended protocol. The first-strand cDNA was synthesized using the PrimeScript RT Reagent Kit (Takara, product no. RR047A) for RT-PCR. In brief, a 10 μl system containing 2 μl of 5× PrimeScript RT Master Mix (Perfect Real Time) and RNase-Free Distilled Water and RNA solution, with a total RNA amount of 500 ng, was transferred to the ABI ProFlex PCR System (2×96-well) to perform reverse transcription. RT-PCR was then conducted using the Ex-Taq PCR kit (Takara, product no. RR820A) following the manufacturer's instructions. All RT-qPCR primer sequences were included in Table 2."}, "Smad 9, Esrrb, and Sox2": {"system": "Smad 9, Esrrb, and Sox2", "experiment": "RT-qPCR of multipotency / stem cell marker genes in adipocytes", "settings": "BML-284 treated cells", "protocol": "as §1"}, "CD13 and Endoglin": {"system": "CD13 and Endoglin", "experiment": "Immunostaining of surface markers of dedifferentiated adipocytes", "settings": "BML-284 treated cells", "protocol": "Twelve hours before the experiment, cells were seeded onto cover slips in 12-well dishes and cultured overnight at 37° C. and […]. Cells were fixed with […] for 10 min at 4° C. Next, the cells were either directly incubated with 1% BSA/PBS for 1 h or first permeabilized with 0.1% Triton X-100/PBS for 10 min at 4° C. before blocking with 1% BSA/PBS. Subsequently, CD13 primary antibody (Santa Cruz, product no. sc-13536 1:100) or Endoglin primary antibody (Santa Cruz, product no. sc-18838 1:100) was incubated with cells overnight at 4° C. Following 3 times washing in 0.5% tween/PBS, cells were incubated with secondary antibody (CST, product no. 8890S) in 1% BSA/PBS (1:400) in darkness for 1.5 hours at room temperature. After further washing, cells were mounted with DAPI (Thermo Fisher, product no. 62247) and examined with a Nikon A1HD25 confocal microscope."}, "3T3-L1 adipocytes [3]": {"system": "3T3-L1 adipocytes", "experiment": "Osteogenic re-differentiation of treated 3T3-L1 adipocytes", "settings": "BML-284-treated adipocytes", "protocol": "The osteogenic and chondrogenic re-differentiation capacities of dedifferentiated adipocytes were also examined. To induce osteogenic differentiation, 1×10^6 cells were seeded in 6-well plates and incubated overnight at 37° C. and 5% CO2. The culture medium was then replaced with StemPro Osteogenesis Differentiation medium (Thermo Fisher, product no. A1007201) and cells were maintained in this medium for up to 14 days, with medium renewal every 3 days. This medium contains specific factors that promote differentiation towards the osteogenic lineage, allowing the cells to deposit mineralized extracellular matrix and express osteogenic markers.\nAlkaline phosphatase (ALP) staining was conducted on Day 9 of the feeder cell-mediated reprogramming process, following the manufacturer's instructions for the Alkaline Phosphatase Detection Kit (Sigma, product no. SCR004). The staining was performed to detect the activity of ALP, a marker of pluripotency, and to assess the success of the reprogramming process.\nTotal RNA was isolated using the RNA Extraction Kit (Takara, product no. 9767) in accordance with the manufacturer's recommended protocol. The first-strand cDNA was synthesized using the PrimeScript RT Reagent Kit (Takara, product no. RR047A) for RT-PCR. […]"}, "3T3-L1 adipocytes [4]": {"system": "3T3-L1 adipocytes", "experiment": "Chondrogenic re-differentiation of treated 3T3-L1 adipocytes", "settings": "BML-284-treated adipocytes"}, "3T3-L1 adipocytes [5]": {"system": "3T3-L1 adipocytes", "experiment": "AnnexinV-FITC/PI staining, apoptosis of adipocytes", "settings": "comparison of BML-284 and hypertonic treatment", "protocol": "The hypertonic dedifferentiation of adipocytes typically requires up to 7 days of culture in 2% PEG-300. Considering that TNF-α is recognized as a proinflammatory cytokine capable of inducing adipocyte apoptosis, an evaluation of the apoptotic status of adipocytes was carried out using AnnexinV-FITC/PI staining. […] It was concluded that the extended hypertonic treatment could lead to apoptosis alongside the dedifferentiation of adipocytes."}, "[6]": {"system": "VDAC and NDUFA9 in the EVs of 3T3-L1 adipocytes", "experiment": "Immunoblot of mitochondrial proteins in EVs of 3T3-L1 adipocytes", "protocol": "To obtain lysates, cells were washed twice with cold PBS and lysed with 1 mL of RIPA buffer (Beyotime, product no. P0013B) at 4° C. for 1 hour with gentle rotation. The lysate was subsequently centrifuged at 12,000 g for 20 min at 4° C., and the resulting supernatant was quantified the protein concentration. Protein extracts were then separated by SDS-PAGE and transferred onto a NC membrane (Bio-Rad, product no. 1620112). The membranes were incubated overnight at 4° C. with antibodies against VDAC (CST, product no. 4866s, 1:1000), NDUFA9 (Abcam, product no. ab14713, 1:1000), CD81(Santa Cruz, product no. sc-166029, 1:1000), Non-phospho (Active) β-Catenin (CST, product no. 8814, 1:2000), β-Catenin (CST, product no. 9562, 1:1000) and 3-actin (Santa Cruz, product no. sc-47778, 1:1000). Following incubation with the appropriate secondary antibody (Abcam, product no. ab205719; Thermo Fisher, product no. 31460, 1:4000), the protein bands were visualized using an enhanced chemiluminescence (ECL) kit (Bio-Rad, product no. 170-5061) and captured using a Bio-red ChemiDoc. […]\nThe 3T3-L1 adipocytes were treated by isotonic and hypertonic medium. […] The resuspended suspensions contain approximately 80 μg protein each as determined by DC protein assay (Bio-Rad, product no. 5000114). […]"}, "[7]": {"system": "mitochondria in adipocytes", "experiment": "MitoTracker Green (MTG) staining of mitochondria", "settings": "pyruvic acid (1 mM) added to the hypertonic treatment", "protocol": "Hypertonicity is known to disrupt the ionic homeostasis of cells and reduce the electronic potential in mitochondria, consequentially inhibiting ATP production.\nTo stain cells with MitoTracker (CST, product no. FM 9074), the 1 mM stock solution should be diluted directly into normal growth media to achieve a staining concentration ranging from 400 nM. The live cells were incubated for 15 minutes at 37° C. Following incubation, live imaging is necessary to visualize the staining pattern within the cells.\nTo mitigate mitochondrial stress, adipocytes were treated with 1 mM pyruvic acid (Sigma-Aldrich, product no. 107360) in hypertonic cultures. An equivalent volume of DMSO was added to the control samples. Following the treatment, the cells were either subjected to MTG staining or the supernatants were collected for EV isolation and analysis."}, "[8]": {"system": "TNF-α, IL-6, RIP1, CEBPA, and MCP-1", "experiment": "RT-qPCR of inflammatory genes in 3T3-L1 adipocytes", "protocol": "To validate this, MEVs were isolated from the hypertonic treatment of 3T3-L1 adipocytes and subsequently applied to naïve 3T3-L1 adipocytes cultured in isotonic conditions (FIG. 6A).\nas §1"}}}
{"smiles": "COc1cccc(-c2cc(NCc3ccc4c(c3)OCO4)nc(N)n2)c1", "note": "[BML-284, 2-amino-4-(3,4-(methylenedioxy)benzylamino)-6-(3-methoxyphenyl)pyrimidine]", "values": [{"measurement": "loss of lipid droplets", "setting": "3T3-L1 adipocytes [1]; 3T3-L1 adipocytes, isotonic culture, 4 days", "value": 40, "unit": "%"}, {"measurement": "cells with elongated morphology", "setting": "3T3-L1 adipocytes [1]; BML-284-treated 3T3-L1 adipocytes", "value": "significant increases"}, {"measurement": "cells with elongated morphology", "setting": "SVF adipocytes; BML-284-treated SVF adipocytes", "value": "significant increases"}, {"measurement": "loss of lipid droplets", "setting": "SVF adipocytes; SVF adipocytes, isotonic culture, 4 days", "value": 80, "unit": "%"}, {"measurement": "Oil red staining", "setting": "adipocytes", "value": "decreased"}, {"measurement": "expression of adipogenic genes (C/EBPβ, PPAR-γ, adiponectin)", "setting": "[2]", "value": "significant reductions"}, {"measurement": "expression of marker genes of multipotency (Smad 9, Esrrb, Sox2)", "setting": "Smad 9, Esrrb, and Sox2", "value": "significant increases"}, {"measurement": "expression of proteins of multipotency (CD13 and endoglin)", "setting": "CD13 and Endoglin", "value": "significant increases"}, {"measurement": "expression of osteogenic markers after inducing treatment", "setting": "3T3-L1 adipocytes [3]", "value": "increased expression"}, {"measurement": "expression of chondrogenic markers after inducing treatment", "setting": "3T3-L1 adipocytes [4]", "value": "increased expression"}, {"measurement": "apoptosis in 3T3-L1 adipocytes", "setting": "3T3-L1 adipocytes [5]", "value": "did not lead to significant apoptosis"}]}
{"smiles": "O=C(/C=C/c1ccc(/C=C/C(=O)Nc2ccc(C3=NCCN3)cc2)cc1)Nc1ccc(C2=NCCN2)cc1", "note": "[GW4869]", "values": [{"measurement": "EVs level of NDUFA9 induced by hypertonic treatments", "setting": "[6]; 10 μM GW4869, vs DMSO", "value": "substantially inhibited"}]}
{"smiles": "CC(=O)C(=O)O", "note": "[pyruvic acid]", "values": [{"measurement": "MTG staining of mitochondria in adipocytes", "setting": "[7]", "value": "effectively restored"}, {"measurement": "levels of mitochondrial proteins VDAC and NDUFA9 in the EVs", "setting": "[6]; pyruvic acid 1 mM in hypertonic culture", "value": "reduced"}, {"measurement": "induction of TNF-α expression by hypertonic EVs", "setting": "[8]; EVs from hypertonic culture with pyruvic acid", "value": "prevented"}, {"measurement": "induction of TNF-α and IL-6 expression in hypertonic culture", "setting": "[8]; pyruvic acid added to the hypertonic culture, 2 hours", "value": "abolished"}]}
